For 22 compounds, Ki results are on record in US8486931B2, “Substituted oxindole compounds” (Abbott GmbH & Co. KG, priority 2007, dated 2013).

For this assay, the target named is T1, human vasopressin V1b receptor (Homo sapiens, UniProt P47901).
T1 construct: expressed in transfected cells; host or cells: CHO-K1 (cell line hV1b-3H2_CHO), membrane preparation
T1 sequence (P47901 1-424): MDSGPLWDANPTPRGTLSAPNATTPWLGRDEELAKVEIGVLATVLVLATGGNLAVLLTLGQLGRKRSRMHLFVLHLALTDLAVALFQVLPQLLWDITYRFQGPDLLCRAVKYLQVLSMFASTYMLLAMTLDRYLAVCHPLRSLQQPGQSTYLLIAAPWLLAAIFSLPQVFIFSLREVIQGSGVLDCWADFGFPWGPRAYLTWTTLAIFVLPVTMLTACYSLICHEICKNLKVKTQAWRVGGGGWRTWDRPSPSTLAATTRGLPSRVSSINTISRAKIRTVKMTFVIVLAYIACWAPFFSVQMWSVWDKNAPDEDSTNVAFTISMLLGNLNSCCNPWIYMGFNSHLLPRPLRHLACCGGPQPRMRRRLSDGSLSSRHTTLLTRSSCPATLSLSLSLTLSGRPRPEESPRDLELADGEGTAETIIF
The assay is described as follows: Vasopressin V1b receptor binding assay. To be noted: membranes from CHO-K1 cells with stably expressed human V1b receptors, 1.5 nM 3H-AVP displacement; with more than one stereogenic center: the diastereomer with stronger affinity. The gist of the method: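 Membranes bearing human V1b receptor incubated 60 min at room temperature in 50 mM Tris, 10 mM MgCl2, 0.1% BSA, pH 7.4, 2% DMSO, triplicate.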
In the case of `CCOc1cc(OC)ccc1C1(N2CCN(c3ccncc3)CC2)C(=O)N(S(=O)(=O)c2cccc3cccnc23)c2ccc(C#N)cc21` (racemic) [Example 157, (±)-5-Cyano-3-(2-ethoxy-4-methoxy-phenyl)-3-(4-pyridin-4-yl-piperazin-1-yl)-1-(quinoline-8-sulfonyl)-2,3-dihydro-1H-indol-2-one], the inhibition constant Ki is 10 to 50 nM.

The compound `CCOc1ccc(C)cc1C1(N2CCN(c3ccncc3)CC2)C(=O)N(S(=O)(=O)c2ccc(OC)c3cccnc23)c2ccc(C#N)cc21` (racemic) [Example 159, (±)-5-Cyano-3-(2-ethoxy-5-methyl-phenyl)-1-(5-methoxy-quinoline-8-sulfonyl)-3-(4-pyridin-4-yl-piperazin-1-yl)-2,3-dihydro-1H-indol-2-one] displayed a Ki of less than 10 nM.

`CCOc1ccc(CC)cc1C1(N2CCN(c3ccnc(C)c3)CC2)C(=O)N(S(=O)(=O)c2ccc(OC)c3cccnc23)c2ccc(C#N)cc21` (racemic) [Example 160, (±)-5-Cyano-3-(2-ethoxy-5-ethyl-phenyl)-1-(5-methoxy-quinoline-8-sulfonyl)-3-[4-(2-methyl-pyridin-4-yl)-piperazin-1-yl]-2,3-dihydro-1H-indol-2-one] yielded a Ki of less than 10 nM.

For the compound `CCOc1ccc(OC)cc1C1(N2CCN(C3CCN(C)CC3)CC2)C(=O)N(S(=O)(=O)c2ccc(OC)c3cccnc23)c2ccc(C#N)cc21` (racemic) [Example 161, (±)-5-Cyano-3-(2-ethoxy-5-methoxy-phenyl)-1-(5-methoxy-quinoline-8-sulfonyl)-3-[4-(1-methyl-piperidin-4-yl)-piperazin-1-yl]-2,3-dihydro-1H-indol-2-one], the Ki was less than 10 nM.

Compound `CCOc1ccc(CC)cc1C1(N2CCN(c3ccnc(C)c3)CC2)C(=O)N(S(=O)(=O)c2ccc(OC)cn2)c2ccc(C#N)cc21` (racemic) [Example 165, (±)-5-Cyano-3-(2-ethoxy-5-ethyl-phenyl)-1-(5-methoxy-pyridine-2-sulfonyl)-3-[4-(2-methyl-pyridin-4-yl)-piperazin-1-yl]-2,3-dihydro-1H-indol-2-one] came in with a Ki of less than 10 nM.

`CCOc1ccc(CC)cc1C1(N2CCN(c3ccnc(C(C)C)c3)CC2)C(=O)N(S(=O)(=O)c2ccc(OC)cn2)c2ccc(C#N)cc21` (racemic) [Example 166, (±)-5-Cyano-3-(2-ethoxy-5-ethyl-phenyl)-3-[4-(2-isopropyl-pyridin-4-yl)-piperazin-1-yl]-1-(5-methoxy-pyridine-2-sulfonyl)-2,3-dihydro-1H-indol-2-one] returned a Ki of less than 10 nM.

In the case of `CCOc1nc(Cl)ccc1C1(N2CCN(c3ccnc(C(C)C)c3)CC2)C(=O)N(S(=O)(=O)c2ccc(OC)cn2)c2ccc(C#N)cc21` (racemic) [Example 167, (±)-5-Cyano-3-(6-chloro-2-ethoxy-pyridin-3-yl)-3-[4-(2-isopropyl-pyridin-4-yl)-piperazin-1-yl]-1-(5-methoxy-pyridine-2-sulfonyl)-2,3-dihydro-1H-indol-2-one], the Ki was 10 to 50 nM.

With `CCOc1nc(Cl)ccc1C1(N2CCCN(c3ccncc3)CC2)C(=O)N(S(=O)(=O)c2ccc(OC)cn2)c2ccc(C#N)cc21` (racemic) [Example 168, (±)-5-Cyano-3-(6-chloro-2-ethoxy-pyridin-3-yl)-1-(5-methoxy-pyridine-2-sulfonyl)-3-(4-pyridin-4-yl-[1,4]diazepan-1-yl)-2,3-dihydro-1H-indol-2-one], the Ki fell in the range of 10 to 50 nM.

On to `CCOc1ccc(C)cc1C1(N2CCN(c3ccncc3)CC2)C(=O)N(S(=O)(=O)c2ccc(OC)cn2)c2ccc(C#N)cc21` (racemic) [Example 169, (±)-5-Cyano-3-(2-ethoxy-5-methyl-phenyl)-1-(5-methoxy-pyridine-2-sulfonyl)-3-(4-pyridin-4-yl-piperazin-1-yl)-2,3-dihydro-1H-indol-2-one], for which the Ki is less than 10 nM.

Regarding `CCOc1nc(Cl)ccc1C1(N2CCC(N3CCN(C)CC3)CC2)C(=O)N(S(=O)(=O)c2ccc(OC)cn2)c2ccc(C#N)cc21` (racemic) [Example 170, (±)-5-Cyano-3-(6-chloro-2-ethoxy-pyridin-3-yl)-1-(5-methoxy-pyridine-2-sulfonyl)-3-[4-(4-methyl-piperazin-1-yl)-piperidin-1-yl]-2,3-dihydro-1H-indol-2-one], the inhibition constant Ki was less than 10 nM.

The compound `CCOc1cc(OC)ccc1C1(N2CCC(N3CCN(C)CC3)CC2)C(=O)N(S(=O)(=O)c2ccc(OC)cn2)c2ccc(C#N)cc21` (racemic) [Example 171, (±)-5-Cyano-3-(2-ethoxy-4-methoxy-phenyl)-1-(5-methoxy-pyridine-2-sulfonyl)-3-[4-(4-methyl-piperazin-1-yl)-piperidin-1-yl]-2,3-dihydro-1H-indol-2-one] returned a Ki of less than 10 nM.

In turn, `CCOc1ccc(OC)cc1C1(N2CCN(C3CCNCC3)CC2)C(=O)N(S(=O)(=O)c2ccc(OC)cn2)c2ccc(C#N)cc21` (racemic) [Example 172, (±)-5-Cyano-3-(2-ethoxy-5-methoxy-phenyl)-1-(5-methoxy-pyridine-2-sulfonyl)-3-(4-piperidin-4-yl-piperazin-1-yl)-2,3-dihydro-1H-indol-2-one] came in with a Ki of less than 10 nM.

`CCOc1c(OC)cccc1C1(N2CCN(c3ccnc(C(C)C)c3)CC2)C(=O)N(S(=O)(=O)c2ccc(OC)cn2)c2ccc(C#N)cc21` (racemic) [Example 173, (±)-5-Cyano-3-(2-ethoxy-3-methoxy-phenyl)-3-[4-(2-isopropyl-pyridin-4-yl)-piperazin-1-yl]-1-(5-methoxy-pyridine-2-sulfonyl)-2,3-dihydro-1H-indol-2-one] yielded a Ki of less than 10 nM.

For the compound `CCOc1cc(OC)ccc1C1(N2CCC(N3CCNCC3)CC2)C(=O)N(S(=O)(=O)c2ccc(OC)cn2)c2ccc(C#N)cc21` (racemic) [Example 174, (±)-5-Cyano-3-(2-ethoxy-4-methoxy-phenyl)-1-(5-methoxy-pyridine-2-sulfonyl)-3-(4-piperazin-1-yl-piperidin-1-yl)-2,3-dihydro-1H-indol-2-one], the Ki was less than 10 nM.

The compound `CCOc1cc(OC)ccc1C1(N2CCN(c3ccnc(C(C)C)c3)CC2)C(=O)N(S(=O)(=O)c2ccc(OC)cn2)c2ccc(C#N)cc21` (racemic) [Example 175, (±)-5-Cyano-3-(2-ethoxy-4-methoxy-phenyl)-3-[4-(2-isopropyl-pyridin-4-yl)-piperazin-1-yl]-1-(5-methoxy-pyridine-2-sulfonyl)-2,3-dihydro-1H-indol-2-one] registered a Ki of less than 10 nM.

Turning to `CCOc1nc(Cl)ccc1C1(N2CCN(C3CCNCC3)CC2)C(=O)N(S(=O)(=O)c2ccc(OC)cn2)c2ccc(C#N)cc21` (racemic) [Example 176, (±)-5-Cyano-3-(6-chloro-2-ethoxy-pyridin-3-yl)-1-(5-methoxy-pyridine-2-sulfonyl-3-(4-piperidin-4-yl-piperazin-1-yl)-2,3-dihydro-1H-indol-2-one], the inhibition constant Ki is less than 10 nM.

Regarding `CCOc1nc(Cl)ccc1C1(N2CCCN(c3ccnc(C)c3)CC2)C(=O)N(S(=O)(=O)c2ccc(OC)cn2)c2ccc(C#N)cc21` (racemic) [Example 177, (±)-5-Cyano-3-(6-chloro-2-ethoxy-pyridin-3-yl)-1-(5-methoxy-pyridine-2-sulfonyl)-3-[4-(2-methyl-pyridin-4-yl)-[1,4]diazepan-1-yl]-2,3-dihydro-1H-indol-2-one], the Ki was less than 10 nM.

Compound `CCOc1cc(OC)ccc1C1(N2CCN(c3ccnc(C)c3)CC2)C(=O)N(S(=O)(=O)c2ccc(OC)cn2)c2ccc(C#N)cc21` (racemic) [Example 178, (±)-5-Cyano-3-(2-ethoxy-4-methoxy-phenyl)-1-(5-methoxy-pyridine-2-sulfonyl)-3-[4-(2-methyl-pyridin-4-yl)-piperazin-1-yl]-2,3-dihydro-1H-indol-2-one] yielded a Ki of 10 to 50 nM.

As to `CCOc1c(OC)cccc1C1(N2CCN(c3ccnc(C)c3)CC2)C(=O)N(S(=O)(=O)c2ccc(OC)cn2)c2ccc(C#N)cc21` (racemic) [Example 179, (±)-5-Cyano-3-(2-ethoxy-3-methoxy-phenyl)-1-(5-methoxy-pyridine-2-sulfonyl)-3-[4-(2-methyl-pyridin-4-yl)-piperazin-1-yl]-2,3-dihydro-1H-indol-2-one], the Ki is less than 10 nM.

`CCOc1ccc(C)cc1C1(N2CCN(c3ccnc(C)c3)CC2)C(=O)N(S(=O)(=O)c2ccc(OC)cn2)c2ccc(C#N)cc21` (racemic) [Example 180, (±)-5-Cyano-3-(2-ethoxy-5-methyl-phenyl)-1-(5-methoxy-pyridine-2-sulfonyl)-3-[4-(2-methyl-pyridin-4-yl)-piperazin-1-yl]-2,3-dihydro-1H-indol-2-one] showed a Ki of less than 10 nM.

Compound `CCOc1ccc(OC)cc1C1(N2CCC(C3CCNCC3)CC2)C(=O)N(S(=O)(=O)c2ccc(OC)cn2)c2ccc(C#N)cc21` (racemic) [Example 181, (±)-5-Cyano-3-[4,4′]bipiperidinyl-1-yl-3-(2-ethoxy-5-methoxy-phenyl)-1-(5-methoxy-pyridine-2-sulfonyl)-2,3-dihydro-1H-indol-2-one] had a Ki of less than 10 nM.

The compound `CCOc1nc(Cl)ccc1C1(N2CCC(N3CCNCC3)CC2)C(=O)N(S(=O)(=O)c2ccc(OC)cn2)c2ccc(C#N)cc21` (racemic) [Example 182, (±)-5-Cyano-3-(6-chloro-2-ethoxy-pyridin-3-yl)-1-(5-methoxy-pyridine-2-sulfonyl)-3-(4-piperazin-1-yl-piperidin-1-yl)-2,3-dihydro-1H-indol-2-one] registered a Ki of less than 10 nM.

Usually Ki stands for a measure of affinity in units of concentration, obtained from inhibition or displacement. Low values mean a stronger hold on the target, high ones a looser hold on the target.
